The values that follow come from patent US11897961B2, “Anti-CD123 antibodies and conjugates and derivatives thereof” (IMMUNOGEN, INC., priority 2015, dated 2024).

The test system of one data set is EOL-1 cells. As to the kind of experiment: EOL-1 subcutaneous model in athymic nude mice, third study.
For data set [1], the system named is normal blood cells / normal progenitor cells versus AML progenitors. Briefly: Cytotoxicity on normal blood / normal progenitor cells versus AML progenitors. The format is cell-based, human. As to conditions: FIG. 11E and FIG. 19.
Data set [2] has as its system TF-1 cells. Briefly: Proliferation of TF-1 cells grown in the presence of GM-CSF (IL-3-dependence control). Format: cell-based, human. As to conditions: GM-CSF 2 ng/mL. As to the method: (§1) The ability of anti-CD123 antibodies to inhibit IL3-mediated signaling and proliferation was examined in vitro using the erythroleukemia cell line TF-1 that can proliferate only in the presence of one of the following growth factors, either IL-3 or GM-CSF. TF-1 cells were cultured in the complete RPMI medium (RPMI-1640, 10% fetal bovine serum and 50 μg/mL gentamicin sulfate; all reagents were from Invitrogen) supplemented with GM-CSF (2 ng/mL). Prior to setting up the proliferation assays, the cells were washed and then starved of the growth factors overnight. […] TF-1 cells were plated at 6,000 cells per well in the complete RPMI medium in either the presence or absence of 10 μg/mL of an anti-CD123 antibody. A growth factor, either IL-3 (1 ng/mL) or GM-CSF (2 ng/mL), was added to the cells to initiate cell proliferation. […] The relative numbers of viable cells in each well were determined by the colorimetric WST-8 assay (Dojindo Molecular Technologies, Inc., Rockville, MD, US). WST-8 is reduced by dehydrogenases in viable cells to an orange formazan product that is soluble in tissue culture medium. The amount of formazan produced is directly proportional to the number of viable cells. […] Then the absorbance was measured on a plate-reader spectrophotometer in the dual wavelength mode 450 nm/650 nm, and the absorbance at the 650 nm (non-specific light scattering by cells) was subtracted from that at the 450 nm.

In data set [3] the test system is TF-1 cells. Briefly: Inhibition of IL-3-dependent proliferation of TF-1 cells (WST-8). The format is cell-based, human. The settings on record: dose-response. How it is done: as §1, with “US).” for “US). WST-8 is reduced by dehydrogenases in viable cells to an orange formazan product that is soluble in tissue culture medium. The amount of formazan produced is directly proportional to the number of viable cells.”
TF-1 cells were plated at 6,000 cells per well in 100 μL culture medium. […] Relative cell number in each well was determined by WST-8 assay as described above. […]

Take `Nc1ncn([C@@H]2O[C@H](CO)[C@@H](O)[C@H]2O)c(=O)n1` [Azacitidine]: in the data set on EOL-1 cells (3.75 mg/kg, q3d × 5, i.p.), the “% T/C (Day 16)” value came to 59%, the CR is 0/8, the PR was 0/8 and the Result result is “Inactive”.

For the molecule gemtuzumab ozogamicin [Mylotarg], in data set [1], the “fold difference in cytotoxicity between normal blood/progenitor cells and AML progenitor cells” value was 10 fold.

Take `Nc1ccn([C@@H]2O[C@H](CO)[C@@H](O)[C@@H]2O)c(=O)n1` [Cytarabine]: in the data set on EOL-1 cells (75 mg/kg, qd × 5, i.p.), the “% T/C (Day 16)” value was 84%, the CR was 0/8, the PR was 0/8 and the Result result is recorded as “Inactive”.

B1: muCD123-6: murine anti-CD123 monoclonal antibody, HCVR SEQ ID NO: 28, LCVR SEQ ID NO: 29 (antibody, V domains shown)
VH: EFQLQQSGPELVKPGASVKMSCKASGYIFTSSIMHWMKQKPGQGLEWIGYIKPYNDGTKYNEKFKGKATLTSDKSSSTANMELNSLTSEDSAVYYCAREGGNDYYDTMDYWGQGTSVTVSS
VL: DIKMTQSPSSMYASLGERVTITCKASQDINSYLSWFQQKPGKSPKTLIYRVNRLVDGVPSRFSGSGSGQDYSLTISSLEYEDMGIYYCLQYDAFPYTFGGGTKLEIKR
For B1, the “effect on TF-1 cell proliferation in the presence of GM-CSF” value (shortened to “effect on TF-1 cell proliferation”) in the data set with TF-1 cells [2] is reported as “no inhibitory effect”.

B2: chCD123-6: chimeric antibody: mouse HCVR/LCVR SEQ ID NOs: 28 and 29 with human IgG1 and Kappa constant sequences (antibody, V domains shown)
VH: EFQLQQSGPELVKPGASVKMSCKASGYIFTSSIMHWMKQKPGQGLEWIGYIKPYNDGTKYNEKFKGKATLTSDKSSSTANMELNSLTSEDSAVYYCAREGGNDYYDTMDYWGQGTSVTVSS
VL: DIKMTQSPSSMYASLGERVTITCKASQDINSYLSWFQQKPGKSPKTLIYRVNRLVDGVPSRFSGSGSGQDYSLTISSLEYEDMGIYYCLQYDAFPYTFGGGTKLEIKR
modifications: human IgG1 and kappa constant regions
In the case of B2, in the data set on TF-1 cells [3], the “inhibition of IL-3-dependent proliferation of TF-1 cells (in words)” value is “completely inhibited at 1 nM”. In addition, the “effect on TF-1 cell proliferation” value with TF-1 cells [2] is on record as “no inhibitory effect”.

B3: muCD123-3: murine anti-CD123 monoclonal antibody, HCVR SEQ ID NO: 26, LCVR SEQ ID NO: 27 (antibody, V domains shown)
VH: EFQLQQSGPEVVKPGASVKMSCKASGYTFTSYVMHWMKQKPGQGLEWIGYIKPYKDGTKYNEKFKGKATLISDKPSSTAYMELSSLTSEDSAVYYCAREGENGYYDAMDYWGQGTSVTVSS
VL: DIQMTQSPSSLSASLGGKVTITCKASQDINKYIAWYQHKPGKGPRLLIHYTSTLQPGIPSRFSGSGSGRDYSFSISNLEPEDIATYYCLQYDNLLYTFGGGTKLELKR
As to B3, the “effect on TF-1 cell proliferation” value in the data set on TF-1 cells [2] is reported as “no inhibitory effect”.

B4: muCD123-14: murine anti-CD123 monoclonal antibody, HCVR SEQ ID NO: 30, LCVR SEQ ID NO: 31 (antibody, V domains shown)
VH: EVKLVESGGDLVKPGGSLKLSCAASGFTFSNYAMSWVRQNSEKRLEWVATINSGGSFTYYPDSVKGRFTISRDNAKDSLYLQMSSLNSEDTAMYYCARQSEAYYGYDKRTWFAYWGQGTLVTVSS
VL: DILLTQSPAILSVSPGTRVSFSCRASQSVGTSIHWYQQRPNGFPRLLIKYASESISGIPSRFSGSGSGTDFTLNINSVESEDIADYYCQQSKSWPLTFGAGTKLELKR
For the molecule B4, the “effect on TF-1 cell proliferation” value with TF-1 cells [2] is listed as “no inhibitory effect”.
